From US20250263376A1, “(E)-N-CINNAMOYLAMINOALKANOLS WITH MELANOGENESIS INHIBITORY ACTIVITY” (Uniwersytet Jagiellonski, priority 2024, published 2025)

How the values were obtained:
tyrosinase from mushroom [1] = target: T1, tyrosinase from mushroom (Agaricus bisporus, UniProt C7FF04); assay: Inhibition of commercial mushroom tyrosinase, substrate L-DOPA; type: biochemical; details: for inhibition at 500 µM: read-out: Tyrosinase inhibition with L-DOPA [%]
Description: (§1) Studies on the Inhibition of the Activity of Commercial Tyrosinase from Mushroom (Sigma: T3824)
(§2) The following substrates were used for the enzymatic reaction: L-tyrosine and L-3,4-dihyroxyphenylalanine (L-DOPA). Both substrates were used in independent experiments. According to the literature, the use of L-DOPA enables the assessment of tyrosinase diphenolase activity, and L-tyrosine—the tyrosinase monophenolase activity. The determinations were performed in 96-well plates, in each well there was placed: 170 μL or 127.5 μL of 50 mM phosphate buffer (pH=6.8) with tyrosinase (1U/well or 3U/well) and 10 μL of a solution of the tested compound in DMSO (the final concentration in the well was 500 μM, 250 μM or 125 μM). The negative control used 10 u L of pure solvent (DMSO). To initiate the reaction, an appropriate substrate was added: L-tyrosine (62.5 μL of solution in phosphate buffer) or L-DOPA (20 μL of solution in phosphate buffer). After a 25-minute incubation, the absorbance was measured at 475 nm using a microplate reader. The percentage of inhibition of tyrosinase activity was calculated using the formula: [(AC−AT)/[…], where AC—is the absorbance of the negative control, AT—is the absorbance of the sample containing the tested compound.

S. typhimurium TA98 = assay: Ames microplate test, TA98; type: cell-based, Salmonella typhimurium; details: without S9
Description: (§3) Bacteria were grown overnight in growth medium.

S. typhimurium TA100 = assay: Ames microplate test, TA100; type: cell-based, Salmonella typhimurium; details: without S9
[2] = Lipophilicity coefficient RM0 by reversed phase thin layer chromatography; type: physicochemical; details: RP-18 TLC, methanol/phosphate buffer pH=7.4
Description: Confirmation of the identity and purity of the obtained compounds consisted in the registration and interpretation of 1H NMR and 13C NMR spectra (the spectra were recorded using an ECZR 500 MHZ (JEOL) series FT-NMR spectrophotometer), as well as the registration and interpretation of LC-MS spectra (the spectra were recorded using Acquita UPLC system (Waters) coupled with a Waters TQD mass spectrometer). The melting point was measured using the open capillary method in the IA9300 device (Electrothermal). The lipophilicity coefficient RM0 was determined by reversed phase thin layer chromatography. In the study, aluminum plates 20×20 cm covered with modified silica gel RP-18 F254 (Merck) were used as the solid phase. The mobile phase consisted of solutions of methanol and 100 mM phosphate buffer (pH=7.4), characterized by a variable methanol content ranging from 95 to 65% (v/v). The tested compounds were dissolved in methanol to obtain solutions with a concentration of 1 mg/mL. Then, […] of the solutions prepared in this way were transferred to the starting line on aluminum plates, which were then placed in chromatographic chambers previously saturated with mobile phase vapors for at least 1 hour. All activities, including the development of chromatograms, were carried out at room temperature. After developing the chromatograms to approximately 1-2 cm from the end of the plate, the plates were dried and then the distance traveled by the tested compounds was visualized under UV light (λ=254 nm). The experiment was performed in duplicate for the specified conditions. For all samples, Rf was calculated according to the formula Rf=a/b, where a—the distance traveled by the tested compound, b—the distance traveled by the mobile phase. Then, the RM parameter was calculated for all samples according to the formula RM=log (1/Rf−1), obtaining a linear relationship between the RM values and the methanol concentration in the mobile phase. The log P coefficient was also calculated using the following computer programs: ACD/ChemSketch 2020.1.2 and ChemDraw 20.0.0.41.

S. typhimurium TA1535 = assay: Ames microplate test, TA1535; details: without S9;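 also: bacteria exposed 90 min at 37 °C in exposure medium, then 48 h in indicator medium in 384-well plates, yellow (revertant) wells counted per condition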
E. coli WP2 = assay: Ames microplate test, E. coli WP2; details: without S9;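 also: bacteria exposed to compound for 90 min at 37 °C in 24-well plates, then transferred with indicator medium to 384-well plates and incubated 48 h before yellow well counting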
S. typhimurium TA1537 = assay: Ames microplate test, TA1537; type: cell-based, Salmonella typhimurium; details: without S9
Description: as §3

tyrosinase from mushroom [3] = target: T1, tyrosinase from mushroom; assay: Inhibition of commercial mushroom tyrosinase, substrate L-tyrosine; type: biochemical; details: for inhibition at 500 µM: read-out: Tyrosinase inhibition with L-tyrosine [%]
Description: as §1, §2

CHO-K1 cells = assay: Cytotoxicity (MTT) in CHO-K1 cells before the micronucleus test; type: cell-based, Chinese hamster; details: 24 hours
Description: The assay was performed using a Chinese hamster ovary cell line (CHO-K1) purchased from the American Type Culture Collection (ATCC). The cells were cultured in F-12K medium with the addition of 10% fetal bovine serum (FBS) and antibiotics (streptomycin/penicillin) in an incubator at 37° C. and 5% CO2 concentration). Before the actual micronucleus test, a cytotoxicity assessment was performed to ensure that the actual test was performed only at safe concentrations. For this purpose, cells were transferred to 96-well plates and incubated with the tested compounds for 24 hours. After this time, the MTT test was performed and cell viability was assessed in comparison to the control group (cells cultured with DMSO at the same concentration as in the case of the tested samples).

[4] = test system: B16-F10 murine melanoma cell line; assay: Cytotoxicity (MTT) in B16-F10 murine melanoma cells; type: cell-based; details: 48 h
Description: Cytotoxicity Assessment in the B16-F10 Murine Melanoma Cell Line (ATTC CRL-6745)—Preliminary Safety Assessment for Subsequent Studies
In order to determine safe doses of compounds for testing the inhibition of melanogenesis in a murine melanoma cell line, cytotoxicity tests were performed. Cytotoxicity was determined by the colorimetric method using MTT ([3-(4,5-dimethyl-2-thiazolyl)-2,5-diphenyl-2H-tetrazolium bromide, Sigma M5655). For this purpose, cells were transferred to 96-well plates in an amount of 5000/well. After 24 h of culture in an incubator in F10-Ham medium with 1% FBS, the tested compounds at various concentrations were added to the wells together with fresh medium. DMSO was added to the medium in a negative control. The MTT test was performed after further culture for 48 h. Then the medium was removed and the formed formazan crystals were dissolved in DMSO. The absorbance was measured at 570 nm in a plate reader and the result was compared to the control (DMSO), which was 100%. The percentage of viability was calculated using the formula: [AT/AC*100], where AT is the absorbance of the test sample, AC—absorbance of the control sample.

T1 sequence (C7FF04 2-392): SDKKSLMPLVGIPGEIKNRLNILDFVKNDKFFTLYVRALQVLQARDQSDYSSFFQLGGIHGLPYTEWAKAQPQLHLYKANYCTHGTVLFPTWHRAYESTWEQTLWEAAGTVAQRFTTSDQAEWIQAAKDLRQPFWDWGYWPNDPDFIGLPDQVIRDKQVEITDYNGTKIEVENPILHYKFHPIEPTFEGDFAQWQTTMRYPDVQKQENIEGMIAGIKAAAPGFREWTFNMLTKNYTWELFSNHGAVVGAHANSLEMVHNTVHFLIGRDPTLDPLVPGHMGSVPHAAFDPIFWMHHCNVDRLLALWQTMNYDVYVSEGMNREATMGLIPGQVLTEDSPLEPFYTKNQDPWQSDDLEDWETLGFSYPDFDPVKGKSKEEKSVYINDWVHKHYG
T1 sequence (G1K3P4 entry or part of it, further chain): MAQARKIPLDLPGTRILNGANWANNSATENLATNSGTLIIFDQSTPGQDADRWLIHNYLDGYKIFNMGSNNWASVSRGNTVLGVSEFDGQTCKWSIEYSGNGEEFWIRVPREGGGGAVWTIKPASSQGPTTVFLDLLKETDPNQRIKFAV

For `CC(CO)NC(=O)/C=C/c1ccc(Cl)cc1` (stereo not drawn) [Compound A-102, (2E)-3-(4-chlorophenyl)-N-(1-hydroxypropan-2-yl)prop-2-enamide], the inhibition at 500 µM (tyrosinase from mushroom [1]) was 53 ± 1.99%, the “Increase in the number of yellow wells compared to the reference level, TA98” value (from here on “Increase in the number of yellow wells … TA98”) (S. typhimurium TA98; 0.5 mM) was 0.24 and the “Increase in the number of yellow wells … TA98” value (S. typhimurium TA98; 1.0 mM) was 0.24. For the same compound, the “Increase in the number of yellow wells … TA98” value (S. typhimurium TA98; 2.0 mM) was 0.35, the “Increase in the number of yellow wells compared to the reference level, TA100” value (“Increase in the number of yellow wells … TA100” below) (S. typhimurium TA100; 0.5 mM) was 1.08 and the “Increase in the number of yellow wells … TA100” value (S. typhimurium TA100; 1.0 mM) was 0.75. For the same compound, the “Increase in the number of yellow wells … TA100” value (S. typhimurium TA100; 2.0 mM) was 0.92, the RM0 [2] was 2.12 and the “Increase in the number of yellow wells compared to the reference level, TA1535” value (“Increase in the number of yellow wells … TA1535” below) (S. typhimurium TA1535; 0.5 mM) was 0.55. The “Increase in the number of yellow wells … TA1535” value (S. typhimurium TA1535; 1.0 mM) was 0.14, the “Increase in the number of yellow wells … TA1535” value (S. typhimurium TA1535; 2.0 mM) was 0.89 and the “Increase in the number of yellow wells compared to the reference level, E. coli WP2” value (“Increase in the number … E. coli WP2” for short) (E. coli WP2; 0.5 mM) was 0.48. For the same compound, the “Increase in the number … E. coli WP2” value (E. coli WP2; 1.0 mM) was 1.03, the “Increase in the number … E. coli WP2” value (E. coli WP2; 2.0 mM) was 0.79 and the “Increase in the number of yellow wells compared to the reference level, TA1537” value (shortened to “Increase in the number of yellow wells … TA1537”) (S. typhimurium TA1537; 0.5 mM) was 0.33. For the same compound, the “Increase in the number of yellow wells … TA1537” value (S. typhimurium TA1537; 1.0 mM) was 0.00, the “Increase in the number of yellow wells … TA1537” value (S. typhimurium TA1537; 2.0 mM) was 1.00 and the inhibition at 500 µM (tyrosinase from mushroom [3]) was 75.5 ± 1.8%. The “% Viability [mean], CHO-K1” value (CHO-K1 cells; 100 μM) was 84.7%, the “% Viability [mean], CHO-K1” value (CHO-K1 cells; 150 μM) was 69.9% and the “% Viability [mean], CHO-K1” value (CHO-K1 cells; 200 μM) was 87.2%. The “Cytotoxicity study in B16F10 cells, % viability” value (shortened to “Cytotoxicity study … % viability”) ([4]; 150 μM) was 80.6%, the “Cytotoxicity study … % viability” value ([4]; 200 μM) was 83.5% and the “Cytotoxicity study … % viability” value ([4]; 250 μM) was 75.7%.
For `Cc1ccc(/C=C/C(=O)NCCCCO)cc1` [H-411/21, (2E)-N-(4-hydroxybutyl)-3-(4-methylphenyl)prop-2-enamide], the inhibition at 500 µM (tyrosinase from mushroom [1]) was 16.9 ± 7.94%, the RM0 [2] was 2.27 and the inhibition at 500 µM (tyrosinase from mushroom [3]) was 20.4 ± 2.09%. The “Cytotoxicity study … % viability” value ([4]; 150 μM) was 50.6%, the “Cytotoxicity study … % viability” value ([4]; 200 μM) was 34.9% and the “Cytotoxicity study … % viability” value ([4]; 250 μM) was 41.2%.
In the case of `O=C(/C=C/c1ccc(Cl)cc1)NCCCCCCO` [H-426/21, (2E)-3-(4-chlorophenyl)-N-(6-hydroxyhexyl)prop-2-enamide], the inhibition at 125 µM (tyrosinase from mushroom [1]; 125 μM) is reported as 30.7 ± 1.82%, the RM0 [2] is reported as 3.02 and the inhibition at 125 µM (tyrosinase from mushroom [3]; 125 μM) is reported as 39.9 ± 3.21%. The “Cytotoxicity study … % viability” value ([4]; 150 μM) was 30.3%, the “Cytotoxicity study … % viability” value ([4]; 200 μM) was 28.2% and the “Cytotoxicity study … % viability” value ([4]; 250 μM) was 28.3%.
Work on `O=C(/C=C/c1ccccc1)NCCO` [H-429/21, (2E)-N-(2-hydroxyethyl)-3-phenylprop-2-enamide] yielded an inhibition at 500 µM (tyrosinase from mushroom [1]) of 30.5 ± 1.2%, an RM0 [2] of 1.27 and an inhibition at 500 µM (tyrosinase from mushroom [3]) of 21 ± 8.83%. For the same compound, the “Cytotoxicity study … % viability” value ([4]; 150 μM) was 86.4%, the “Cytotoxicity study … % viability” value ([4]; 200 μM) was 79.8% and the “Cytotoxicity study … % viability” value ([4]; 250 μM) was 80.9%.
With `O=C(/C=C/c1ccccc1)NCCCO` [KM-634, (2E)-N-(3-hydroxypropyl)-3-phenylprop-2-enamide] the inhibition at 500 µM (tyrosinase from mushroom [1]) was 34.2 ± 2.32%, the RM0 [2] was 1.60 and the inhibition at 500 µM (tyrosinase from mushroom [3]) was 27.4 ± 2.24%. For the same compound, the “Cytotoxicity study … % viability” value ([4]; 150 μM) was 76.1%, the “Cytotoxicity study … % viability” value ([4]; 200 μM) was 70.5% and the “Cytotoxicity study … % viability” value ([4]; 250 μM) was 63.3%.
